Results published in patent US20260226101A1, “PEPTIDE WITH ANTI-INFLAMMATORY AND ANTI-MICROBIAL ACTIVITY” (priority 2023, published 2026).
Ends that are not written are not given here.

How the values were obtained:
Assay in all cases: Time-kill assay
Format in all cases: cell-based
[1] = system: Pseudomonas aeruginosa ATCC 9027; conditions: P. aeruginosa
Experimental: (§1) The survival of bacteria, time kill efficacy assay of IS 111 was further evaluated for activity against bacterial strain mentioned above according to CLSI reference method, with slightly modification. MICs were determined by broth microdilution assay as described above. […] Test tubes of MHB without test compound IS 111 were used as vehicle controls. Overnight cultures of the bacterial strains at cell densities of approximately 1×10^8 CFU/ml were used to inoculate both test and control tubes. The standard tube dilution method was opted to evaluate the time-kill efficacy of bacteria. Bacterial inoculum (1 mL) was diluted by adding 9 mL sterile saline solution and serially diluted up to 10^−3. […] 100 μL incubated suspension was transferred on the agar plates and spread through the spreader. Colony counts were performed after 24 h incubation at 37° C. Plates with 10-300 colonies were used for these counts, and the kill rate was determined by plotting log 10 viable counts (CFU/ml) against time. Bactericidal activity was defined as a ≥3 log 10 decreases in CFU/ml of the initial microbial population, while bacteriostatic activity was defined was defined as a <3 log 10 decrease in CFU/ml. The assay was performed in triplicate [Olufunmiso O Olajuyigbe et al., 2015; Sutthiwan Thammawat et al., 2017]
(§2) The time-kill kinetics antibacterial study of the Peptide IS 111 was carried out to assess the killing rate of the compound within a given contact time. The survival of bacteria, time kill efficacy assay of IS 111 was further evaluated for activity against Escherichia coli ATCC 8739 and Staphylococcus aureus ATCC 6538, Pseudomonas aeruginosa ATCC 9027 and Klebsiella pneumoniae ATCC 700603 according to CLSI reference method, with slightly modification. MICs were determined by broth microdilution assay as described above. […] 10. Test tubes of MHB without test compound Peptide IS 111 were used as vehicle controls. Overnight cultures of the bacterial strains at cell densities of approximately 1×10^6 CFU/ml were used to inoculate both test and control tubes.
(§3) After each interval, ten-fold dilutions were prepared with normal saline, and 100 μL incubated suspension was transferred on the agar plates and spread through the spreader. Colony counts were performed after 24 h incubation at 37° C. Plates with 10-300 colonies were used for these counts, and the kill rate was determined by plotting log 10 viable counts (CFU/ml) against time. Bactericidal activity was defined as a ≥3 log 10 decrease in CFU/ml of the initial microbial population, while bacteriostatic activity was defined as a <3 log 10 decrease in CFU/ml. The assay was performed in triplicate. The proportion of cells surviving at 60 min was calculated, as was the mean and standard deviation. Proportions of surviving cells were compared using Student's 2-tailed t-test, assuming unequal variance and differences were considered significant where p≤0.05.

[2] = system: Staphylococcus aureus ATCC 6538; conditions: S. aureus
Experimental: as §1, §2, §3

[3] = system: Escherichia coli ATCC 8739; conditions: E. coli
Experimental: as §1, §2, §3

With “FAKKFAK [IS 111, Phe-Ala-Lys-Lys-Phe-Ala-Lys]” the Viable count ([1]; 0.5 × MIC, 0 h) was 6.3 ± 0.30 1 × 10^5 CFU/ml, the Viable count ([1]; 0.5 × MIC, 1 h) was 5.4 ± 0.18 1 × 10^5 CFU/ml and the Viable count ([1]; 0.5 × MIC, 2 h) was 4.9 ± 0.15 1 × 10^5 CFU/ml. For the same substance, the Viable count ([1]; 0.5 × MIC, 3 h) was 4.1 ± 0.20 1 × 10^5 CFU/ml, the Viable count ([1]; 0.5 × MIC, 4 h) was 3.5 ± 0.15 1 × 10^5 CFU/ml and the Viable count ([1]; 0.5 × MIC, 5 h) was 2.8 ± 0.23 1 × 10^5 CFU/ml. The Viable count ([1]; 0.5 × MIC, 12 h) was 2.4 ± 0.15 1 × 10^5 CFU/ml, the Reduction in viability ([1]; 0.5×MIC (1.56 μg/ml), 24 h) was 1 log 10 CFU/ml and the “Type of activity (bacteriostatic or bactericidal)” value (“Type of activity” for short) ([1]; 0.5×MIC, 24 h) was “bacteriostatic”. For the same substance, the Viable count ([1]; 0.5×MIC, 24 h) was 2.1 ± 0.25 1 × 10^5 CFU/ml, the Viable count ([1]; 1 × MIC, 0 h) was 6.4 ± 0.15 1 × 10^5 CFU/ml and the Viable count ([1]; 1 × MIC, 1 h) was 4.0 ± 0.30 1 × 10^5 CFU/ml. The Viable count ([1]; 1 × MIC, 2 h) was 1.9 ± 0.20 1 × 10^5 CFU/ml, the Viable count ([1]; 1 × MIC, 3 h) was 1.0 ± 0.08 1 × 10^5 CFU/ml and the Viable count ([1]; 1 × MIC, 4 h) was 0.5 ± 0.08 1 × 10^5 CFU/ml. The Viable count ([1]; 1 × MIC, 5 h) was 0.2 ± 0.05 1 × 10^5 CFU/ml, the Viable count ([1]; 1 × MIC, 12 h) was 0.0 1 × 10^5 CFU/ml and the Viable count ([1]; 1 × MIC, 24 h) was 0.0 1 × 10^5 CFU/ml. For the same substance, the “Time to bacteriostatic activity” value ([1]; 1×MIC (3.13 μg/ml)) was ≤ 12 h, the Viable count ([1]; 5 × MIC, 0 h) was 6.4 ± 0.15 1 × 10^5 CFU/ml and the Viable count ([1]; 5 × MIC, 1 h) was 0.4 ± 0.10 1 × 10^5 CFU/ml. For the same substance, the Viable count ([1]; 5 × MIC, 2 h) was 0.0 1 × 10^5 CFU/ml, the Viable count ([1]; 5 × MIC, 3 h) was 0.0 1 × 10^5 CFU/ml and the Viable count ([1]; 5 × MIC, 4 h) was 0.0 1 × 10^5 CFU/ml. The Viable count ([1]; 5 × MIC, 5 h) was 0.0 1 × 10^5 CFU/ml, the Viable count ([1]; 5 × MIC, 12 h) was 0.0 1 × 10^5 CFU/ml and the Viable count ([1]; 5 × MIC, 24 h) was 0.0 1 × 10^5 CFU/ml. For the same substance, the Viable count ([2]; 0.5 × MIC, 0 h) was 5.1 ± 0.65 1 × 10^5 CFU/ml, the Viable count ([2]; 0.5 × MIC, 1 h) was 4.6 ± 0.48 1 × 10^5 CFU/ml and the Viable count ([2]; 0.5 × MIC, 2 h) was 3.8 ± 0.68 1 × 10^5 CFU/ml. The Viable count ([2]; 0.5 × MIC, 3 h) was 3.2 ± 0.58 1 × 10^5 CFU/ml, the Viable count ([2]; 0.5 × MIC, 4 h) was 2.5 ± 0.58 1 × 10^5 CFU/ml and the Viable count ([2]; 0.5 × MIC, 5 h) was 2.1 ± 0.43 1 × 10^5 CFU/ml. For the same substance, the Viable count ([2]; 0.5 × MIC, 12 h) was 1.8 ± 0.43 1 × 10^5 CFU/ml, the Reduction in viability ([2]; 0.5×MIC (1.56 μg/ml), 24 h) was 2 log 10 CFU/ml and the “Type of activity” value ([2]; 0.5×MIC, 24 h) was “bacteriostatic”. The Viable count ([2]; 0.5×MIC, 24 h) was 1.2 ± 0.23 1 × 10^5 CFU/ml, the Viable count ([2]; 1 × MIC, 0 h) was 5.3 ± 0.10 1 × 10^5 CFU/ml and the Viable count ([2]; 1 × MIC, 1 h) was 3.7 ± 0.43 1 × 10^5 CFU/ml. The Viable count ([2]; 1 × MIC, 2 h) was 1.6 ± 0.48 1 × 10^5 CFU/ml, the Viable count ([2]; 1 × MIC, 3 h) was 0.7 ± 0.15 1 × 10^5 CFU/ml and the Viable count ([2]; 1 × MIC, 4 h) was 0.3 ± 0.15 1 × 10^5 CFU/ml. The Viable count ([2]; 1 × MIC, 5 h) was 0.2 ± 0.00 1 × 10^5 CFU/ml, the Viable count ([2]; 1 × MIC, 12 h) was 0 1 × 10^5 CFU/ml and the Viable count ([2]; 1 × MIC, 24 h) was 0 1 × 10^5 CFU/ml. For the same substance, the “Time to bacteriostatic activity” value ([2]; 1×MIC (3.13 μg/ml)) was ≤ 12 h, the Viable count ([2]; 5 × MIC, 0 h) was 5.6 ± 0.30 1 × 10^5 CFU/ml and the Viable count ([2]; 5 × MIC, 1 h) was 0.8 ± 0.13 1 × 10^5 CFU/ml. For the same substance, the Viable count ([2]; 5 × MIC, 2 h) was 0.4 ± 0.08 1 × 10^5 CFU/ml, the Viable count ([2]; 5 × MIC, 3 h) was 0 1 × 10^5 CFU/ml and the Viable count ([2]; 5 × MIC, 4 h) was 0 1 × 10^5 CFU/ml. For the same substance, the Viable count ([2]; 5 × MIC, 5 h) was 0 1 × 10^5 CFU/ml, the Viable count ([2]; 5 × MIC, 12 h) was 0 1 × 10^5 CFU/ml and the Viable count ([2]; 5 × MIC, 24 h) was 0 1 × 10^5 CFU/ml. For the same substance, the “Time to bacteriostatic activity” value ([2]; 5×MIC (15.6 μg/ml)) was ≤ 2 h, the Viable count ([3]; 0.5 × MIC, 0 h) was 6.4 ± 0.48 1 × 10^5 CFU/ml and the Viable count ([3]; 0.5 × MIC, 1 h) was 5.5 ± 0.28 1 × 10^5 CFU/ml. The Viable count ([3]; 0.5 × MIC, 2 h) was 5.0 ± 0.20 1 × 10^5 CFU/ml, the Viable count ([3]; 0.5 × MIC, 3 h) was 4.2 ± 0.10 1 × 10^5 CFU/ml and the Viable count ([3]; 0.5 × MIC, 4 h) was 3.7 ± 0.08 1 × 10^5 CFU/ml. For the same substance, the Viable count ([3]; 0.5 × MIC, 5 h) was 2.9 ± 0.35 1 × 10^5 CFU/ml, the Viable count ([3]; 0.5 × MIC, 12 h) was 2.5 ± 0.35 1 × 10^5 CFU/ml and the Viable count ([3]; 0.5 × MIC, 24 h) was 2.3 ± 0.43 1 × 10^5 CFU/ml. The Reduction in viability ([3]; 0.5×MIC (0.78 μg/ml), 24 h) was 2 log 10 CFU/ml, the “Type of activity” value ([3]; 0.5×MIC and 1×MIC, 24 h) was “bacteriostatic” and the Viable count ([3]; 1 × MIC, 0 h) was 6.5 ± 0.10 1 × 10^5 CFU/ml. The Viable count ([3]; 1 × MIC, 1 h) was 4.2 ± 0.45 1 × 10^5 CFU/ml, the Viable count ([3]; 1 × MIC, 2 h) was 2.1 ± 0.38 1 × 10^5 CFU/ml and the Viable count ([3]; 1 × MIC, 3 h) was 1.2 ± 0.28 1 × 10^5 CFU/ml. For the same substance, the Viable count ([3]; 1 × MIC, 4 h) was 0.6 ± 0.20 1 × 10^5 CFU/ml, the Viable count ([3]; 1 × MIC, 5 h) was 0.4 ± 0.10 1 × 10^5 CFU/ml and the Viable count ([3]; 1 × MIC, 12 h) was 0.2 ± 0.08 1 × 10^5 CFU/ml. For the same substance, the Viable count ([3]; 1 × MIC, 24 h) was 0 1 × 10^5 CFU/ml, the “Time to complete reduction of initial inoculum” value ([3]; 1×MIC) was 24 h and the Viable count ([3]; 5 × MIC, 0 h) was 6.5 ± 0.23 1 × 10^5 CFU/ml. For the same substance, the Viable count ([3]; 5 × MIC, 1 h) was 0.5 ± 0.05 1 × 10^5 CFU/ml, the Viable count ([3]; 5 × MIC, 2 h) was 0.2 ± 0.05 1 × 10^5 CFU/ml and the Viable count ([3]; 5 × MIC, 3 h) was 0 1 × 10^5 CFU/ml. For the same substance, the Viable count ([3]; 5 × MIC, 4 h) was 0 1 × 10^5 CFU/ml, the Viable count ([3]; 5 × MIC, 5 h) was 0 1 × 10^5 CFU/ml and the Viable count ([3]; 5 × MIC, 12 h) was 0 1 × 10^5 CFU/ml. The Viable count ([3]; 5 × MIC, 24 h) was 0 1 × 10^5 CFU/ml.
